Columns and labels:
rice [1] = assay: Test B pre-/postemergence herbicide test; format: in vivo, Oryza sativa; settings: for Plant response rating, Rice: preemergence
Summary of the method: (§1)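 Test chemicals in a non-phytotoxic solvent mixture with surfactant were applied preemergence to seeded species and postemergence to plants 2-18 cm tall (1- to 4-leaf stage); rice and barnyardgrass were also tested in a flooded paddy at the 2-leaf stage. Visual rating versus controls after 13-15 days in greenhouse, scale 0 (no effect) to 100 (complete control).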

velvetleaf [2] = assay: Test B pre-/postemergence herbicide test; format: in vivo, Abutilon theophrasti
Summary of the method: as §1

[3] = test system: small flower umbrella sedge; assay: Test B flooded paddy test; format: in vivo, Cyperus difformis; settings: 1000 g ai/ha, visual rating, scale 0 to 100 (0 no effect, 100 complete control), 13 to 15 days
Summary of the method: (§2)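 Treated at 2-leaf (paddy) or 1–4-leaf, 2–18 cm (postemergence); greenhouse 13–15 d; visual score vs control, 0 none to 100 complete control; dash = not tested.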

morningglory [4] = assay: Test B pre-/postemergence herbicide test; format: in vivo, Ipomoea coccinea
Summary of the method: (§3)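 Herbicidal effect was judged by eye on a 0–100 scale after plants stood 13 to 15 days in the greenhouse following pre- or postemergence treatment with surfactant-containing formulations.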

giant foxtail [5] = assay: Test A pre-/postemergence herbicide test; format: in vivo, Setaria faberi
Summary of the method: (§4)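 Both application timings were run together: directed soil spray over freshly planted seeds in sandy loam, and runoff spray onto 2–10 cm seedlings. Evaluation after ~10 days in greenhouse used a 0–100 visual scale versus untreated controls.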

blackgrass = assay: Test B postemergence herbicide test; format: in vivo, Alopecurus myosuroides; settings: scale 0 (no effect) to 100 (complete control); for Plant response rating, Blackgrass: Postemergence, 500 g ai/ha, visual rating after 13 to 15 days; for Blackgrass plant response rating: postemergence, 125 g ai/ha, visual rating
Summary of the method: as §2

rice [6] = assay: Test B flooded paddy test; format: in vivo, Oryza sativa; settings: 1000 g ai/ha, visual rating, scale 0 to 100 (0 no effect, 100 complete control), 13 to 15 days
Summary of the method: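 Paddy species grown to the 2-leaf stage under flooding; blackgrass sprayed postemergence at 2–18 cm (1- to 4-leaf stage). Plants kept in a greenhouse for 13 to 15 days, then visually rated against controls on 0 (no effect) to 100 (complete control).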

pigweed = assay: Test B pre-/postemergence herbicide test; format: in vivo, Amaranthus retroflexus
Summary of the method: as §1

barnyardgrass [7] = assay: Test B flooded paddy test; format: in vivo, Echinochloa crus-galli; settings: 1000 g ai/ha, visual rating, scale 0 to 100 (0 no effect, 100 complete control), 13 to 15 days
Summary of the method: as §2

corn = assay: Test B pre-/postemergence herbicide test; format: in vivo, Zea mays
Summary of the method: as §1

barnyardgrass [8] = assay: Test A pre-/postemergence herbicide test; format: in vivo, Echinochloa crus-galli
Summary of the method: as §4

large crabgrass [9] = assay: Test B pre-/postemergence herbicide test; format: in vivo, Digitaria sanguinalis
Summary of the method: as §1

large crabgrass [10] = assay: Test A pre-/postemergence herbicide test; format: in vivo, Digitaria sanguinalis
Summary of the method: as §4

velvetleaf [11] = assay: Test A pre-/postemergence herbicide test; format: in vivo, Abutilon theophrasti
Summary of the method: as §4

cocklebur = assay: Test B pre-/postemergence herbicide test; format: in vivo, Xanthium strumarium
Summary of the method: as §3

morningglory [12] = assay: Test A pre-/postemergence herbicide test; format: in vivo, Ipomoea spp.
Summary of the method: as §4

Surinam grass = assay: Test B pre-/postemergence herbicide test; format: in vivo, Urochloa decumbens
Summary of the method: as §1

giant foxtail [13] = assay: Test B pre-/postemergence herbicide test; format: in vivo, Setaria faberi
Summary of the method: as §1

wheat = assay: Test B postemergence herbicide test; format: in vivo, Triticum aestivum; parameters: key to Wheat plant response rating: 0 = no effect, 100 = complete control; settings: scale 0 (no effect) to 100 (complete control); for Plant response rating, Wheat: Postemergence, 500 g ai/ha, visual rating after 13 to 15 days; for Wheat plant response rating: postemergence, 125 g ai/ha, visual rating
Summary of the method: (§5)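 After treating 2-leaf paddy plants or 2–18 cm postemergence plants (1 to 4 leaves) with formulated chemical, researchers kept them in a greenhouse for 13–15 days. Effects were judged visually versus controls: 0 indicates none, 100 total control.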

barnyardgrass [14] = assay: Test B pre-/postemergence herbicide test; format: in vivo, Echinochloa crus-galli
Summary of the method: as §3

wild oat = assay: Test B postemergence herbicide test; format: in vivo, Avena fatua; settings: scale 0 (no effect) to 100 (complete control); for Plant response rating, Oat, Wild: Postemergence, 500 g ai/ha, visual rating after 13 to 15 days; for Oat, Wild plant response rating: postemergence, 125 g ai/ha, visual rating
Summary of the method: as §5

ducksalad = assay: Test B flooded paddy test; format: in vivo, Heteranthera limosa; settings: 1000 g ai/ha, visual rating, scale 0 to 100 (0 no effect, 100 complete control), 13 to 15 days
Summary of the method: as §2

redroot pigweed = assay: Test A pre-/postemergence herbicide test; format: in vivo, Amaranthus retroflexus
Summary of the method: as §4

lambsquarters = assay: Test B pre-/postemergence herbicide test; format: in vivo, Chenopodium album
Summary of the method: as §1

[15] = 125 g ai/ha, 0 to 100 scale, 0 is no effect, 100 is complete control
[16] = 500 g ai/ha, visual rating 0-100, 0 no effect, 100 complete control, preemergence
[17] = Postemergence, 500 g ai/ha, visual rating after 13 to 15 days, scale 0 (no effect) to 100 (complete control)
[18] = postemergence, 125 g ai/ha, visual rating, scale 0 (no effect) to 100 (complete control)
[19] = preemergence, 125 g ai/ha, 0 to 100 scale, 0 is no effect, 100 is complete control
[20] = Postemergence, 500 g ai/ha, 0 to 100 scale, 0 no effect, 100 complete control
[21] = Postemergence, 2000 g ai/ha, 0 to 100 scale, 0 no effect, 100 complete control
[22] = Preemergence, 500 g ai/ha, visual rating, 0 to 100 scale (0 no effect, 100 complete control)
[23] = Preemergence, 2000 g ai/ha, visual rating, 0 to 100 scale (0 no effect, 100 complete control)
[24] = Preemergence, 500 g ai/ha, scale 0 to 100
[25] = Preemergence, 2000 g ai/ha, 0 to 100 scale, 0 no effect, 100 complete control

CCn1nc(C(C)(C)C)cc1C(=O)Nc1cccc(C(=O)OC(C)(C)C)c1 [Compound 98]
30: Plant response rating, Pigweed (pigweed; [17]) | Plant response rating, Lambsquarters (lambsquarters; [17])
20: Plant response rating, Morningglory (morningglory [4]; [17]) | Plant response rating, Crabgrass, Large (large crabgrass [9]; [17]) | Crabgrass, Large plant response rating (large crabgrass [9]; [18]) | Plant response rating, Cocklebur (cocklebur; [17]) | Plant response rating, Surinam Grass (Surinam grass; [17]) | Lambsquarters plant response rating (lambsquarters; [18])
10: Plant response rating, Velvetleaf (velvetleaf [2]; [17]) | Velvetleaf plant response rating (velvetleaf [2]; [18]) | Pigweed plant response rating (pigweed; [18]) | Plant response rating, Corn (corn; [17]) | Corn plant response rating (corn; [18]) | Surinam Grass plant response rating (Surinam grass; [18]) | Plant response rating, Foxtail, Giant (giant foxtail [13]; [17]) | Foxtail, Giant plant response rating (giant foxtail [13]; [18]) | Plant response rating, Barnyardgrass (barnyardgrass [14]; [17]) | Barnyardgrass plant response rating (barnyardgrass [14]; [18]) | Plant response rating, Oat, Wild (wild oat) | Plant response rating, Pigweed (redroot pigweed; [21])
0: Plant response rating, Rice (rice [1]; 500 g ai/ha, visual rating 0-100, 0 no effect, 100 complete control) | Plant response rating, Rice (rice [1]; [15]) | Plant response rating, Velvetleaf (velvetleaf [2]; [16]) | Plant response rating, Velvetleaf (velvetleaf [2]; [19]) | Sedge, Umbrella plant response rating [3] | Plant response rating, Morningglory (morningglory [4]; [16]) | Morningglory plant response rating (morningglory [4]; [18]) | Plant response rating, Morningglory (morningglory [4]; [19]) | Foxtail, Giant plant response rating (giant foxtail [5]; [20]) | Plant response rating, Foxtail, Giant (giant foxtail [5]; [21]) | Foxtail, Giant plant response rating (giant foxtail [5]; [22]) | Foxtail, Giant plant response rating (giant foxtail [5]; [23]) | Plant response rating, Blackgrass (blackgrass) | Blackgrass plant response rating (blackgrass) | Rice plant response rating (rice [6]) | Plant response rating, Pigweed (pigweed; [16]) | Plant response rating, Pigweed (pigweed; [19]) | Barnyardgrass plant response rating (barnyardgrass [7]) | Plant response rating, Corn (corn; [16]) | Plant response rating, Corn (corn; [19]) | Barnyardgrass plant response rating (barnyardgrass [8]; [20]) | Plant response rating, Barnyardgrass (barnyardgrass [8]; [21]) | Barnyardgrass plant response rating (barnyardgrass [8]; [22]) | Barnyardgrass plant response rating (barnyardgrass [8]; [23]) | Plant response rating, Crabgrass, Large (large crabgrass [9]; [16]) | Plant response rating, Crabgrass, Large (large crabgrass [9]; [19]) | Crabgrass, Large plant response rating (large crabgrass [10]; [20]) | Plant response rating, Crabgrass, Large (large crabgrass [10]; [21]) | Crabgrass, Large plant response rating (large crabgrass [10]; [22]) | Crabgrass, Large plant response rating (large crabgrass [10]; [23]) | Velvetleaf plant response rating (velvetleaf [11]; [20]) | Velvetleaf plant response rating (velvetleaf [11]; [22]) | Velvetleaf plant response rating (velvetleaf [11]; [23]) | Plant response rating, Cocklebur (cocklebur; [16]) | Cocklebur plant response rating (cocklebur; [18]) | Plant response rating, Cocklebur (cocklebur; [19]) | Morningglory plant response rating (morningglory [12]; [20]) | Plant response rating, Morningglory (morningglory [12]; [21]) | Morningglory plant response rating (morningglory [12]; [22]) | Morningglory plant response rating (morningglory [12]; [23]) | Plant response rating, Surinam Grass (Surinam grass; [16]) | Plant response rating, Surinam Grass (Surinam grass; [19]) | Plant response rating, Foxtail, Giant (giant foxtail [13]; [16]) | Plant response rating, Foxtail, Giant (giant foxtail [13]; [19]) | Plant response rating, Wheat (wheat) | Wheat plant response rating (wheat) | Plant response rating, Barnyardgrass (barnyardgrass [14]; [16]) | Plant response rating, Barnyardgrass (barnyardgrass [14]; [19]) | Oat, Wild plant response rating (wild oat) | Ducksalad plant response rating (ducksalad) | Pigweed plant response rating (redroot pigweed; [22]) | Pigweed plant response rating (redroot pigweed; [23]) | Plant response rating, Lambsquarters (lambsquarters; [16]) | Plant response rating, Lambsquarters (lambsquarters; [19])
5: Plant response rating, Velvetleaf (velvetleaf [11]; [21]) | Pigweed plant response rating (redroot pigweed; [20])

CCN(CC)C(=O)c1cc(NC(=O)c2cc(C(C)(C)C)nn2CC)ccc1F [Compound 59]
65: Foxtail, Giant plant response rating (giant foxtail [5]; [25])
20: Plant response rating, Velvetleaf (velvetleaf [2]; [17]) | Velvetleaf plant response rating (velvetleaf [2]; [18]) | Plant response rating, Morningglory (morningglory [4]; [17]) | Morningglory plant response rating (morningglory [4]; [18]) | Plant response rating, Foxtail, Giant (giant foxtail [5]; [21]) | Plant response rating, Corn (corn; [17]) | Plant response rating, Barnyardgrass (barnyardgrass [8]; [20]) | Plant response rating, Crabgrass, Large (large crabgrass [9]; [17]) | Crabgrass, Large plant response rating (large crabgrass [9]; [24]) | Plant response rating, Crabgrass, Large (large crabgrass [10]; [21]) | Plant response rating, Velvetleaf (velvetleaf [11]; [21]) | Plant response rating, Surinam Grass (Surinam grass; [17]) | Plant response rating, Foxtail, Giant (giant foxtail [13]; [17]) | Plant response rating, Barnyardgrass (barnyardgrass [14]; [17]) | Plant response rating, Oat, Wild (wild oat)
75: Plant response rating, Pigweed (redroot pigweed; [21])
45: Crabgrass, Large plant response rating (large crabgrass [10]; [25])
5: Foxtail, Giant plant response rating (giant foxtail [5]; [22])
40: Velvetleaf plant response rating (velvetleaf [2]; [24]) | Plant response rating, Cocklebur (cocklebur; [17]) | Morningglory plant response rating (morningglory [12]; [25]) | Foxtail, Giant plant response rating (giant foxtail [13]; [24]) | Plant response rating, Pigweed (redroot pigweed; [20])
80: Plant response rating, Pigweed (pigweed; [17]) | Lambsquarters plant response rating (lambsquarters; [18])
55: Velvetleaf plant response rating (velvetleaf [11]; [25])
60: Barnyardgrass plant response rating (barnyardgrass [8]; [25])
15: Plant response rating, Foxtail, Giant (giant foxtail [5]; [20]) | Plant response rating, Crabgrass, Large (large crabgrass [10]; [20]) | Velvetleaf plant response rating (velvetleaf [11]; [22])
10: Plant response rating, Velvetleaf (velvetleaf [2]; [19]) | Morningglory plant response rating (morningglory [4]; [24]) | Corn plant response rating (corn; [18]) | Crabgrass, Large plant response rating (large crabgrass [9]; [18]) | Plant response rating, Crabgrass, Large (large crabgrass [9]; [19]) | Cocklebur plant response rating (cocklebur; [18]) | Plant response rating, Morningglory (morningglory [12]; [20]) | Plant response rating, Morningglory (morningglory [12]; [21]) | Morningglory plant response rating (morningglory [12]; [22]) | Surinam Grass plant response rating (Surinam grass; [24]) | Surinam Grass plant response rating (Surinam grass; [18]) | Plant response rating, Wheat (wheat) | Plant response rating, Barnyardgrass (barnyardgrass [14]; [19]) | Oat, Wild plant response rating (wild oat)
90: Pigweed plant response rating (redroot pigweed; [22]) | Plant response rating, Lambsquarters (lambsquarters; [17]) | Plant response rating, Lambsquarters (lambsquarters; [19])
100: Pigweed plant response rating (pigweed; [24]) | Plant response rating, Pigweed (pigweed; [19]) | Pigweed plant response rating (redroot pigweed; [25]) | Lambsquarters plant response rating (lambsquarters; [24])
25: Barnyardgrass plant response rating (barnyardgrass [8]; [22]) | Crabgrass, Large plant response rating (large crabgrass [10]; [22])
70: Pigweed plant response rating (pigweed; [18]) | Barnyardgrass plant response rating (barnyardgrass [14]; [24])
30: Plant response rating, Barnyardgrass (barnyardgrass [8]; [21])
0: Rice plant response rating (rice [1]; [24]) | Plant response rating, Rice (rice [1]; [15]) | Sedge, Umbrella plant response rating [3] | Plant response rating, Morningglory (morningglory [4]; [19]) | Plant response rating, Blackgrass (blackgrass) | Blackgrass plant response rating (blackgrass) | Rice plant response rating (rice [6]) | Barnyardgrass plant response rating (barnyardgrass [7]) | Corn plant response rating (corn; [24]) | Plant response rating, Corn (corn; [19]) | Cocklebur plant response rating (cocklebur; [24]) | Plant response rating, Cocklebur (cocklebur; [19]) | Plant response rating, Surinam Grass (Surinam grass; [19]) | Foxtail, Giant plant response rating (giant foxtail [13]; [18]) | Plant response rating, Foxtail, Giant (giant foxtail [13]; [19]) | Wheat plant response rating (wheat) | Barnyardgrass plant response rating (barnyardgrass [14]; [18]) | Ducksalad plant response rating (ducksalad)
